Reference: PubChem BioAssay AID977605 (Broad Institute, 2014)
Active and inactive are the calls of the source.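 Rule for the calls: active = fitted curve reaches 40% activation below the top valid tested dose, in every test run; inconclusive = test runs disagree on the call; inactive = the rest, including effects opposite to the expected direction.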

Test: E-selectin inducers in HUVECs, dose response, imaging, HUVEC, cherry-picked samples (AID 977605);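 note: signal is the share of imaged cells scored positive for E-selectin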
Settings: HUVEC E-selectin immunostaining, at 18 µM (top of the series), percent of TNF-alpha response over vehicle

Row | Compound | activation
1 | COc1ccc(NC(=O)N(C)C[C@H]2Oc3ccc(NC(=O)CCCCCC(=O)Nc4ccccc4N)cc3CC(=O)N([C@@H](C)CO)C[C@H]2C)cc1 | 0.745% (inactive)

Same assay, conditions: HUVEC E-selectin immunostaining, at 19.5 µM (top of the series)

Row | Compound | activation
2 | C=COCCn1c(C)c(C(C)=O)c2cc(O)ccc21 | 0.265% (inactive)
3 | Cc1ccc(OC(F)F)c(N2C(=O)C3C4CCC(O4)C3C2=O)c1 (stereo not drawn) | -0.065% (inactive)
4 | Cc1ccc(-c2nc3ccccc3c(=O)n2-c2cccc(O)c2)cc1 | 0.249% (inactive)

Same assay, conditions: HUVEC E-selectin immunostaining, at 19.5 µM (top of the series), percent of TNF-alpha response over vehicle

Row | Compound | activation
5 | CNS(=O)(=O)c1ccc(NC(=O)C2CC(=O)N(c3ccc(Cl)cc3)C2)cc1 (stereo not drawn) | -0.269% (inactive)
6 | Cc1[nH]c(C)c(S(=O)(=O)N2CCCCC2)c1C(=O)N1CCCC1 | -0.044% (inactive)
7 | C[C@H](CO)N1C[C@H](C)[C@@H](CN(C)C)Oc2ccc(NC(=O)CCCN(C)C)cc2CC1=O | -0.172% (inactive)
8 | COc1ccc(S(=O)(=O)Nc2ccc3c(c2)C(=O)N([C@@H](C)CO)C[C@@H](C)[C@@H](CN(C)C(=O)Nc2cccc4ccccc24)O3)cc1 | -0.103% (inactive)
9 | CCN(CC)c1ccc(S(=O)(=O)N2CCOCC2)cc1NC(=O)CN1C(=O)NC2(CCCC2)C1=O | 4.54% (inactive)
10 | COc1ccc(OC)c(NC(=O)c2csc(Cl)c2OC)c1 | 2.39% (inactive)
11 | Cc1cccc(CC(=O)Nc2sc(C(C)C)cc2C(=O)N2CCOCC2)c1 | 0.007% (inactive)
12 | CCNS(=O)(=O)c1ccc(CCC(=O)N2CCN(c3ccc(OC)cc3)CC2)cc1 | -0.027% (inactive)
13 | O=S(=O)(NCc1csc(-c2cccs2)n1)c1ccc(Cl)cc1 | 0.045% (inactive)
14 | COC(=O)c1cc(S(=O)(=O)NCC2CCN(CCc3cccs3)CC2)c[nH]1 | 0.021% (inactive)
15 | Cc1c(C(=O)NCc2ccco2)oc2ccccc12 | -0.246% (inactive)
16 | CCOC(=O)[C@]12CCCC=C1N(CCC1=CCCCC1)C(=O)[C@H](CC(=O)NCCC(C)C)C2 | 7.1% (inactive)
17 | CCOC(=O)C1(Cc2ccccc2C)CCCN(C(=O)c2ccnn2C)C1 (stereo not drawn) | -0.138% (inactive)
18 | C[C@@H]1CN([C@@H](C)CO)C(=O)c2cccc(NS(=O)(=O)c3ccc(Cl)cc3)c2O[C@H]1CN(C)C(=O)Nc1ccc2c(c1)OCO2 | -0.05% (inactive)
19 | C[C@H]1CN([C@@H](C)CO)C(=O)Cc2cc(NS(=O)(=O)c3ccc(F)cc3)ccc2O[C@@H]1CN(C)S(=O)(=O)c1ccc(Cl)cc1 | -0.047% (inactive)
20 | C[C@@H]1CN([C@@H](C)CO)C(=O)c2cccc(NS(=O)(=O)c3cn(C)cn3)c2O[C@H]1CN(C)C(=O)Nc1ccc2c(c1)OCO2 | -0.015% (inactive)
21 | O=C1CC(N2CCSCC2)C(=O)N1c1cccc(Br)c1 (stereo not drawn) | -0.085% (inactive)
22 | C[C@H](CO)N1C[C@H](C)[C@H](CN(C)Cc2ccc(Cl)c(Cl)c2)Oc2c(NS(=O)(=O)c3cn(C)cn3)cccc2C1=O | -0.123% (inactive)
23 | Cc1noc(C)c1NC(=O)N(C)C[C@@H]1Oc2ccc(NS(=O)(=O)c3cccs3)cc2CC(=O)N([C@H](C)CO)C[C@H]1C | -0.165% (inactive)
24 | C[C@H](CO)N1C[C@H](C)[C@H](CN(C)C(=O)Nc2cccc3ccccc23)Oc2ccc(NS(C)(=O)=O)cc2C1=O | 0.267% (inactive)
25 | O=C(NCc1ccc(F)cc1)c1cc(C2CCCCN2C(=O)CCCc2ccccc2)on1 (stereo not drawn) | -0.164% (inactive)

Row | Compound | activation
26 | CC(C)C[C@@H]1COc2cc(N3CCC[C@H]3CO)ccc2S(=O)(=O)N1 | -0.153% (inactive)
27 | Cc1ccc(CCNC(=O)C2CCC(CNc3c(N4CCC(C)CC4)c(=O)c3=O)CC2)cc1 (stereo not drawn) | -0.022% (inactive)
28 | CC(C)OC(=O)c1cccnc1N1CCN(c2cccc(Cl)c2)CC1 | 0.039% (inactive)
29 | COc1ccc(S(=O)(=O)Nc2cccc3c2O[C@H](CN(C)C(=O)Nc2c(C)noc2C)[C@H](C)CN([C@@H](C)CO)C3=O)cc1 | -0.052% (inactive)
30 | C[C@@H]1CN([C@H](C)CO)C(=O)Cc2cc(NC(=O)Cn3cnnn3)ccc2O[C@H]1CN(C)C(=O)Nc1ccc(C(F)(F)F)cc1 | 0.232% (inactive)
31 | COc1ccc(S(=O)(=O)Nc2ccc3c(c2)CC(=O)N([C@H](C)CO)C[C@@H](C)[C@@H](CN(C)C(=O)NC2CCCCC2)O3)cc1 | 0.114% (inactive)
32 | C[C@@H]1CN([C@H](C)CO)C(=O)c2cc(N(C)C)ccc2O[C@H]1CN(C)Cc1ccc(C(=O)O)cc1 | -0.039% (inactive)
33 | Oc1cccc(Oc2ncc(C(F)(F)F)cc2Cl)c1 | -0.09% (inactive)
34 | CNC(=O)C[C@H]1CC[C@H]2[C@@H](COc3ccc(NC(=O)c4cccc(F)c4)cc3C(=O)N2C)O1 | 1.5% (inactive)
35 | COc1ccc(-c2nnc3n2CCCCC3)cc1 | 0.032% (inactive)
36 | CC(C)(CN1CCCC1)NS(=O)(=O)c1ccc(Cl)cc1 | -0.279% (inactive)
37 | COC(=O)C[C@H]1CC[C@H]2[C@@H](COc3ccc(NC(=O)C4CC4)cc3C(=O)N2C)O1 | 3.57% (inactive)
38 | C[C@@H]1CN([C@@H](C)CO)C(=O)c2cccc(NC(=O)c3ccc(-c4nccs4)cc3)c2O[C@@H]1CN(C)Cc1ccc(Cl)c(Cl)c1 | 0.039% (inactive)
39 | CC(C)NC(=O)Nc1ccc2c(c1)CC(=O)N([C@H](C)CO)C[C@@H](C)[C@H](CN(C)Cc1ccc(Oc3ccccc3)cc1)O2 | -0.138% (inactive)
40 | C[C@@H]1CN([C@H](C)CO)C(=O)c2cccc(NC(=O)C3CC3)c2O[C@@H]1CN(C)Cc1ccccc1 | 0.474% (inactive)
41 | COc1cccc(NC(=O)c2ccc(OC(F)(F)F)cc2)c1 | 0.305% (inactive)
42 | CCC(=O)N(C)C[C@H]1Oc2ncc(Br)cc2C(=O)N([C@@H](C)CO)C[C@@H]1C | 0.243% (inactive)
43 | COc1ccc(NC(=O)NC2(C(=O)N3CCOCC3)CCCCC2)cc1 | 0.439% (inactive)
44 | C[C@@H]1CN([C@@H](C)CO)C(=O)Cc2cc(NC(=O)Nc3ccc(F)cc3)ccc2O[C@H]1CN(C)C(=O)Nc1ccc(C(F)(F)F)cc1 | -0.14% (inactive)
45 | COc1ccc(N2CCN(C(=O)c3cccc(NC4=NC5CS(=O)(=O)CC5S4)c3)CC2)cc1 (stereo not drawn) | -0.136% (inactive)

Same assay, conditions: HUVEC E-selectin immunostaining, at 21 µM (top of the series), percent of TNF-alpha response over vehicle

Row | Compound | activation
46 | COc1ccc(CN(C)C[C@H]2Oc3ccc(NC(=O)CCCN(C)C)cc3C(=O)N([C@H](C)CO)C[C@H]2C)cc1 | -0.188% (inactive)
47 | COc1ccc(NC(=O)N(C)C[C@@H]2Oc3ccc(NC(=O)c4ccncc4)cc3CC(=O)N([C@@H](C)CO)C[C@@H]2C)cc1 | -0.09% (inactive)
48 | CN1C(=O)c2cc(NC(=O)C3CCOCC3)ccc2OC[C@@H]2O[C@H](CC(=O)NCc3ccccc3F)CC[C@H]21 | -0.036% (inactive)
49 | CC(C)NC(=O)Nc1ccc2c(c1)CC(=O)N([C@H](C)CO)C[C@H](C)[C@@H](CN(C)Cc1ccc(C(=O)O)cc1)O2 | -0.068% (inactive)
50 | C[C@H](CO)N1C[C@H](C)[C@H](CN(C)S(=O)(=O)c2ccc(Cl)cc2)Oc2ccc(NS(=O)(=O)c3ccc(F)cc3)cc2CC1=O | -0.115% (inactive)
51 | Cc1noc(C)c1S(=O)(=O)Nc1ccc2c(c1)C(=O)N([C@H](C)CO)C[C@@H](C)[C@H](CN(C)Cc1ccncc1)O2 | -0.191% (inactive)
52 | C[C@H](CO)N1C[C@H](C)[C@@H](CN(C)Cc2ccc(Cl)c(Cl)c2)Oc2c(NC(=O)CCCCCC(=O)Nc3ccccc3N)cccc2C1=O | 3.2% (inactive)
53 | C[C@H](CO)N1C[C@H](C)[C@H](CN(C)C(=O)Nc2ccc3c(c2)OCO3)Oc2c(NS(=O)(=O)c3ccc(Cl)cc3)cccc2C1=O | -0.135% (inactive)
